Assay results: PMC5650142, “GPR40 partial agonists and AgoPAMs: Differentiating effects on glucose and hormonal secretions in the rodent” (PLoS ONE, 2017)
Values joined by “and” are separate entries in the source; they are usually repeats but may differ in a detail not shown here. Equal values may be shown once. Read-outs that look alike come from different tables or passages of the source.

What was measured:
[1] = test system: pancreatic islets from wild type and GPR40−/− mice; test: Isolated pancreatic islets static GDIS assay (insulin, glucagon secretion); assay type: cell-based, mouse; parameters: Islet insulin / Islet insulin, mean: unit not given here; settings: for glucagon secretion from islets: ex vivo; for Islet Glucagon / Islet insulin: individual replicates; for Islet Glucagon, mean / Islet insulin, mean: mean of replicates
Description: Pancreatic islets of Langerhans were isolated from wild type and GPR40^−/− mice (littermates) by collagenase digestion and discontinuous Ficoll gradient separation. […] Insulin secretion was determined by a 1-h static incubation in Krebs-Ringer bicarbonate (KRB) buffer in a 96-well format as previously described. […] The buffer was removed from the wells at the end of the incubation and assayed for insulin levels using the Insulin ELISA kit (ALPCO, Salem, NH) and glucagon level using glucagon ELISA kit (ALPCO, Salem, NH).

GK rats = test: GK rat acute efficacy (glucose, insulin, glucagon after single dose); assay type: in vivo; settings: 10 mpk
Outline: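 Food removed ~1 hr after lights on; rats grouped by ambient glucose, each compound given at its maximal effective dose. Glucose, insulin and glucagon measured at 1, 2, 4 and 24 hrs post dose; plasma in K2EDTA with DPP4 and protease inhibitors, insulin by EIA, glucagon by in-house MSD sandwich immunoassay.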

human GPR40 = human GPR40 (Homo sapiens, UniProt O14842); test: GPR40 binding assay, AgoPAM tracer [3H]25 ([3H]AP9); parameters: expressed in transfected cells; host or cells: CHO / CHO-K1 cells, membrane preparation;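 for % Bound Normalized to 100: 100% bound is tracer binding in DMSO-only wells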;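 for %Bound: 100% bound is tracer binding in DMSO-only wells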
Outline: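 Affinity at two allosterically coupled GPR40 sites was probed by displacement or enhancement of radiotracer: the partial agonist [3H]L358 and the AgoPAM [3H]25. Human GPR40 CHO-cell membranes (5 μg/well) on WGA SPA beads were incubated with compound and tracer at room temperature, then counted. Outputs: IC50 and maximal % bound.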

[2] = radioligand L-005306257, dose 0.318285 nM
[3] = radioligand L-005306257, dose 1.00578 nM
[4] = radioligand L-005306257, dose 3.17827 nM
[5] = radioligand L-005306257, dose 10.0433 nM
[6] = radioligand L-005306257, dose 31.7369 nM
[7] = radioligand L-005306257, dose 100.289 nM
[8] = radioligand L-005306257, dose 316.912 nM
[9] = radioligand L-005306257, dose 1001.44 nM
[10] = radioligand L-005306257, dose 3164.56 nM
[11] = radioligand L-005306257, dose 10000 nM

Chain of human GPR40 (O14842 whole entry): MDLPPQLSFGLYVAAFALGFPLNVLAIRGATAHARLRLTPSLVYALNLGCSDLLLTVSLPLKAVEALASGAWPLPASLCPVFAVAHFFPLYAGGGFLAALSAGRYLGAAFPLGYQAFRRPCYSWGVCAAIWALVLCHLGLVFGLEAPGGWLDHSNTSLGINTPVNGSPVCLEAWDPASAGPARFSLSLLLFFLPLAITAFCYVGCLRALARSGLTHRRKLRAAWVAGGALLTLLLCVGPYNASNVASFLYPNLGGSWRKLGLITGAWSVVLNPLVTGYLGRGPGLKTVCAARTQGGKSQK

- Binding Results, % in parentheses, [^3H]AP9 (human GPR40; WT human GPR40, maximal % (not defined)): (101%)
- IC50 (human GPR40; WT human GPR40, n = 2–13, read-out: Binding Results [IC50, nM], [^3H]AP9): 5.9 ± 5.2 nM
- binding of [^3H]25 (human GPR40; human GPR40 membranes, competition binding): displace
- %Act, HUMAN GPR40, Binding Data (human GPR40; individual determinations, AgoPAM tracer (per Table 2)): 102% and 101%
- IC50 (human GPR40; individual determinations, AgoPAM tracer (per Table 2), read-out: IC50 (nM), HUMAN GPR40, Binding Data): 2.18 nM and 9.53 nM
- % Bound Normalized to 100 (human GPR40; [2]): 96.23%
- %Bound (human GPR40; [2]): 90.33%
- inhibition at 0.000318285 µM (human GPR40; [2]): 6.84%
- % Bound Normalized to 100 (human GPR40; [3]): 76.57%
- %Bound (human GPR40; [3]): 70.67%
- inhibition at 0.00100578 µM (human GPR40; [3]): 10.2%
- % Bound Normalized to 100 (human GPR40; [4]): 49.04%
- %Bound (human GPR40; [4]): 43.15%
- inhibition at 0.00317827 µM (human GPR40; [4]): 27.8%
- % Bound Normalized to 100 (human GPR40; [5]): 29.38%
- %Bound (human GPR40; [5]): 23.49%
- inhibition at 0.0100433 µM (human GPR40; [5]): 52.8%
- % Bound Normalized to 100 (human GPR40; [6]): 11.81%
- %Bound (human GPR40; [6]): 5.92%
- inhibition at 0.0317369 µM (human GPR40; [6]): 84.3%
- % Bound Normalized to 100 (human GPR40; [7]): 9.60%
- %Bound (human GPR40; [7]): 3.71%
- inhibition at 0.100289 µM (human GPR40; [7]): 92.8%
- % Bound Normalized to 100 (human GPR40; [8]): 4.07%
- %Bound (human GPR40; [8]): -1.82%
- inhibition at 0.316912 µM (human GPR40; [8]): 100%
- % Bound Normalized to 100 (human GPR40; [9]): 2.48%
- %Bound (human GPR40; [9]): -3.42%
- inhibition at 1.00144 µM (human GPR40; [9]): 102%
- % Bound Normalized to 100 (human GPR40; [10]): 6.29%
- %Bound (human GPR40; [10]): 0.39%
- inhibition at 3.16456 µM (human GPR40; [10]): 99.9%
- % Bound Normalized to 100 (human GPR40; [11]): 6.04%
- %Bound (human GPR40; [11]): 0.15%
- inhibition at 10 µM (human GPR40; [11]): 101%
Compound: C[C@H](C(=O)O)[C@H](c1ccc2c(c1)O[C@H](C1CN(Cc3cc(C(F)(F)F)ccc3C(F)(F)F)C1)CC2)C1CC1 [AP3]
- glucagon secretion from islets ([1]; GPR40-/- mouse islets): abolished
- Islet Glucagon ([1]; KO mouse islets, G2, 1uM): 25.089 pg/ml/ islet and 11.858 pg/ml/ islet and 9.721 pg/ml/ islet and 3.205 pg/ml/ islet and 12.4 pg/ml/ islet and 14.931 pg/ml/ islet and 18.163 pg/ml/ islet and 18.456 pg/ml/ islet and 21.346 pg/ml/ islet and 15.13 pg/ml/ islet
- Islet insulin ([1]; KO mouse islets, G2, 1uM): 0.293 and 0.272 and 0.213 and 0.106 and 0.37 and 0.44 and 0.27 and 0.128 and 1.077 and 0.675
- Islet Glucagon, mean ([1]; KO mouse islets, G2, 1uM): 15.0299 pg/ml/ islet
- Islet insulin, mean ([1]; KO mouse islets, G2, 1uM): 0.3844
- Islet Glucagon ([1]; KO mouse islets, G16, 1uM): 4.043 pg/ml/ islet and 5.474 pg/ml/ islet and 8.717 pg/ml/ islet and 11.984 pg/ml/ islet and 16.06 pg/ml/ islet and 18.271 pg/ml/ islet and 3.382 pg/ml/ islet and 7.691 pg/ml/ islet and 7.902 pg/ml/ islet and 2.338 pg/ml/ islet
- Islet insulin ([1]; KO mouse islets, G16, 1uM): 5.28 and 3.491 and 4.033 and 2.378 and 3.966 and 1.757 and 3.131 and 3.522 and 3.781 and 3.035
- Islet Glucagon, mean ([1]; KO mouse islets, G16, 1uM): 8.5862 pg/ml/ islet
- Islet insulin, mean ([1]; KO mouse islets, G16, 1uM): 3.4374
- Islet Glucagon ([1]; WT mouse islets, G2, 1uM): 38.183 pg/ml/ islet and 99.219 pg/ml/ islet and 47.629 pg/ml/ islet and 35.059 pg/ml/ islet and 41.718 pg/ml/ islet and 44.978 pg/ml/ islet and 113.083 pg/ml/ islet and 70.443 pg/ml/ islet and 44.123 pg/ml/ islet and 60.974 pg/ml/ islet
- Islet insulin ([1]; WT mouse islets, G2, 1uM, listed as L-005427846): 1.34 and 1.9735 and 0.61 and 0.65 and 0.79 and 1.22 and 0.9145 and 1.416 and 1.5465 and 1.2555
- Islet Glucagon, mean ([1]; WT mouse islets, G2, 1uM): 59.5409 pg/ml/ islet
- Islet insulin, mean ([1]; WT mouse islets, G2, 1uM): 1.1716
- Islet Glucagon ([1]; WT mouse islets, G16, 1uM): 19.839 pg/ml/ islet and 16.487 pg/ml/ islet and 37.465 pg/ml/ islet and 8.951 pg/ml/ islet and 23.354 pg/ml/ islet and 22.21 pg/ml/ islet and 33.167 pg/ml/ islet and 31.559 pg/ml/ islet and 48.792 pg/ml/ islet
- Islet insulin ([1]; WT mouse islets, G16, 1uM, listed as L-005427846): 11.936 and 11.639 and 13.085 and 12.097 and 12.133 and 11.613 and 12.28 and 12.692 and 11.465 and 12.253
- Islet Glucagon, mean ([1]; WT mouse islets, G16, 1uM): 26.8693 pg/ml/ islet
- Islet insulin, mean ([1]; WT mouse islets, G16, 1uM): 12.1193
- glucagon secretion from islets ([1]; WT mouse islets): significantly elevated
- Plasma Glucagon Over Time (Fig 2C) (GK rats; time 0, individual animals): 19.5235 pg/mL and 95.1724 pg/mL and 78.4069 pg/mL and 68.928 pg/mL and 101.768 pg/mL and 68.1132 pg/mL and 64.8322 pg/mL and 90.2934 pg/mL
- Plasma Insulin Over Time (Fig 2B) (GK rats; time 0, individual animals): 1.335 ng/mL and 3.288 ng/mL and 2.57 ng/mL and 2.616 ng/mL and 1.578 ng/mL and 2.696 ng/mL and 1.845 ng/mL and 1.5169 ng/mL
- Plasma Glucagon Over Time (Fig 2C) (GK rats; time 1, individual animals): 91.082 pg/mL and 337.393 pg/mL and 327.979 pg/mL and 373.532 pg/mL and 338.805 pg/mL and 110.666 pg/mL and 312.795 pg/mL and 175.651 pg/mL
- Plasma Insulin Over Time (Fig 2B) (GK rats; time 1, individual animals): 7.035 ng/mL and 11.786 ng/mL and 10.5354 ng/mL and 9.1461 ng/mL and 4.564 ng/mL and 7.402 ng/mL and 7.0553 ng/mL and 5.184 ng/mL
- Plasma Glucagon Over Time (Fig 2C) (GK rats; time 2, individual animals): 309.053 pg/mL and 291.695 pg/mL and 285.862 pg/mL and 322.143 pg/mL and 116.312 pg/mL and 40.1476 pg/mL and 259.365 pg/mL and 215.877 pg/mL
- Plasma Insulin Over Time (Fig 2B) (GK rats; time 2, individual animals): 3.782 ng/mL and 3.3115 ng/mL and 3.493 ng/mL and 3.854 ng/mL and 1.215 ng/mL and 0.8625 ng/mL and 2.2798 ng/mL and 2.163 ng/mL
- Plasma Glucagon Over Time (Fig 2C) (GK rats; time 4, individual animals): 120.787 pg/mL and 261.082 pg/mL and 116.805 pg/mL and 218.976 pg/mL and 231.061 pg/mL and 206.193 pg/mL and 151.031 pg/mL and 315.618 pg/mL
- Plasma Insulin Over Time (Fig 2B) (GK rats; time 4, individual animals): 3.033 ng/mL and 3.537 ng/mL and 3.038 ng/mL and 2.421 ng/mL and 1.582 ng/mL and 1.483 ng/mL and 2.06 ng/mL and 1.86 ng/mL
- Plasma Glucagon Over Time (Fig 2C) (GK rats; time 24, individual animals): 114.227 pg/mL and 80.8254 pg/mL and 201.451 pg/mL and 177.87 pg/mL and 103.778 pg/mL and 114.567 pg/mL and 171.755 pg/mL and 119.088 pg/mL
- Plasma Insulin Over Time (Fig 2B) (GK rats; time 24, individual animals): 1.556 ng/mL and 1.426 ng/mL and 1.797 ng/mL and 1.415 ng/mL and 0.6908 ng/mL and 1.576 ng/mL and 1.455 ng/mL and 1.848 ng/mL
